The source of these data is patent US10023602B2, “Hamamelitannin analogues and uses thereof” (Universiteit Gent, priority 2014, dated 2018).

Where only a bound is given, the exact number is not on record here.

Assay [1] concerns methicillin resistant S. aureus Mu50 strain (S. aureus ATCC700699) biofilm. Briefly: Biofilm susceptibility to vancomycin, combination treatment regimen (mature biofilm treated with compound plus vancomycin). The following applies: for Combin. (100 μM): percentage Colony Forming Units (CFU's) per biofilm: compound 100 μM together with VAN 20 μg/ml on mature biofilm; for Combin. (100 μM): percentage Colony Forming Units (CFU's) per biofilm / Combin. (25 μM): percentage Colony Forming Units (CFU's) per biofilm: compared to the untreated (negative) control; for EC50: concentration needed to get 50% killing compared to antibiotic alone (VAN 20 μg/ml) and complete killing, read-out: Combin. (EC50); for Combin. (25 μM): percentage Colony Forming Units (CFU's) per biofilm: compound 25 μM together with VAN 20 μg/ml on mature biofilm. Format: cell-based. The procedure: (§1) The compounds were evaluated for their effect on biofilm susceptibility both under pre-treatment and combination treatment regimens. In the pre-treatment regimen, a methicillin resistant S. aureus Mu50 strain (S. aureus ATCC700699) was allowed to form biofilms in the presence of the compounds after which the biofilm was treated with vancomycin (20 μg/ml). In the combination treatment regimen, S. aureus Mu50 was allowed to form a mature biofilm after which it was treated with a combination of a compound and vancomycin. In brief, 100 μl of a standardized inoculum (10^8 CFU/ml) was placed in the wells of a round-bottom 96-well microtiter plate. The cells were allowed to adhere to the plate in the absence (combined treatment) or presence (pre-treatment) of the compounds (0.1-250 μM) for 4 h at 37° C. After this adhesion step, non-adhered cells were removed, the wells were rinsed and fresh medium with or without the compounds was added. The plates were incubated for an additional 20 h at 37° C. After this, the medium was removed, biofilms were rinsed with physiological saline and vancomycin (20 μg/ml) was added alone (pre-treatment) or with the compounds (combined treatment, 0.1-250 μM). Plates were placed at 37° C. for 24 h after which medium was removed, wells were rinsed and the surviving cells in each condition were collected. The number of surviving cells under each condition was compared to vancomycin treatment alone and was assessed by conventional plating. The REF compound (hamamelitannin) was also observed for its effect on biofilm susceptibility towards other antibiotics (incl. vancomycin, cefoxitin, tobramycin, cefazolin, cefalonium, daptomycin, linezolide and cephalexin). Biofilms were formed as described above and were treated with the antibiotics alone or in combination with the REF compound (250 μM). The number of surviving cells under each condition was compared to the untreated control biofilm and was assessed by conventional plating.

Assay [2] shares this test system. In words: Biofilm susceptibility to vancomycin, pre-treatment regimen (biofilm formed in presence of compound, then vancomycin). The settings on record: for Pretreat (100 μM): percentage Colony Forming Units (CFU's) per biofilm: compound 100 μM during biofilm formation; for Pretreat (100 μM): percentage Colony Forming Units (CFU's) per biofilm / Pretreat. (25 μM): percentage Colony Forming Units (CFU's) per biofilm: then VAN 20 μg/ml, compared to the untreated (negative) control; for EC50: concentration needed to get 50% killing compared to antibiotic alone (VAN 20 μg/ml) and complete killing, read-out: Pretreat. (EC50); for Pretreat. (25 μM): percentage Colony Forming Units (CFU's) per biofilm: compound 25 μM during biofilm formation. It counts as cell-based. The procedure: as §1

For the compound `O=C(NC[C@]1(O)CO[C@H](CNC(=O)c2cnccn2)[C@H]1O)c1ccccc1` [compound 208, N-(((2R,3R,4S)-4-(benzamidomethyl)-3,4-dihydroxytetrahydrofuran-2-yl)methyl)pyrazine-2-carboxamide], the “Combin. (100 μM): percentage Colony Forming Units (CFU's) per biofilm” value in assay [1] was found to be 18.77 percentage. Moreover, the “Pretreat (100 μM): percentage Colony Forming Units (CFU's) per biofilm” value in assay [2] is 10.52 percentage.
The EC50 is the midpoint of the concentration-response curve. In the case of `O=C(NC[C@]1(O)CO[C@H](CNC(=O)c2ccc(Cl)nc2Cl)[C@H]1O)c1ccccc1` [compound 197, N-(((2R,3R,4S)-4-(benzamidomethyl)-3,4-dihydroxytetrahydrofuran-2-yl)methyl)-2,6-dichloronicotinamide], in assay [1], the “Combin. (100 μM): percentage Colony Forming Units (CFU's) per biofilm” value was 16.84 percentage and the EC50 is 8.27 µM. In addition, in assay [2], the “Pretreat (100 μM): percentage Colony Forming Units (CFU's) per biofilm” value was 18.75 percentage and the EC50 came to 7.92 µM.
With `CC(C)(C)C(=O)NC[C@H]1OC[C@@](O)(CNC(=O)c2ccccc2)[C@@H]1O` [compound 226, N-(((3S,4R,5R)-3,4-dihydroxy-5-(pivalamidomethyl)tetrahydrofuran-3-yl)methyl)benzamide], the “Combin. (100 μM): percentage Colony Forming Units (CFU's) per biofilm” value in assay [1] is 28.64 percentage. Also, the “Pretreat (100 μM): percentage Colony Forming Units (CFU's) per biofilm” value in assay [2] worked out at 50.74 percentage.
Regarding `Cn1nccc1C(=O)NC[C@H]1OC[C@@](O)(CNC(=O)c2ccccc2)[C@@H]1O` [compound 209, N-(((2R,3R,4S)-4-(benzamidomethyl)-3,4-dihydroxytetrahydrofuran-2-yl)methyl)-1-methyl-1H-pyrazole-5-carboxamide], in assay [1], the “Combin. (100 μM): percentage Colony Forming Units (CFU's) per biofilm” value is reported as 21.74 percentage and the EC50 was 23.5 µM. In addition, in assay [2], the “Pretreat (100 μM): percentage Colony Forming Units (CFU's) per biofilm” value was 22.47 percentage and the half-maximal effective concentration (EC50) was 29.3 µM.
As for `O=C(NC[C@]1(O)CO[C@H](CNC(=O)c2cccnc2Cl)[C@H]1O)c1ccccc1` [compound 199, N-(((2R,3R,4S)-4-(benzamidomethyl)-3,4-dihydroxytetrahydrofuran-2-yl)methyl)-2-chloronicotinamide], in assay [1], the “Combin. (100 μM): percentage Colony Forming Units (CFU's) per biofilm” value was 65.56 percentage and the EC50 is above 250 µM. Further, in assay [2], the “Pretreat (100 μM): percentage Colony Forming Units (CFU's) per biofilm” value is listed as 68.76 percentage and the EC50 was above 250 µM.
Turning to `O=C(NC[C@]1(O)CO[C@H](CNC(=O)c2ccccc2Cl)[C@H]1O)c1ccncc1` [compound 239, N-(((3S,4R,5R)-5-((2-chlorobenzamido)methyl)-3,4-dihydroxytetrahydrofuran-3-yl)methyl)isonicotinamide], in assay [1], the “Combin. (25 μM): percentage Colony Forming Units (CFU's) per biofilm” value stood at 58.76 percentage. In addition, in assay [2], the “Pretreat. (25 μM): percentage Colony Forming Units (CFU's) per biofilm” value came to 49.98 percentage.
Turning to `O=C(CCc1ccccc1)NC[C@H]1OC[C@@](O)(CNC(=O)c2ccccc2)[C@@H]1O` [compound 190, N-(((3S,4R,5R)-3,4-dihydroxy-5-((3-phenylpropanamido)methyl)tetrahydrofuran-3-yl)methyl)benzamide], the “Combin. (100 μM): percentage Colony Forming Units (CFU's) per biofilm” value in assay [1] was determined as 29.24 percentage. In addition, the “Pretreat (100 μM): percentage Colony Forming Units (CFU's) per biofilm” value in assay [2] is reported as 64.43 percentage.
On to `O=C(NC[C@H]1OC[C@@](O)(CNC(=O)c2cc(O)c(O)c(O)c2)[C@@H]1O)c1cc(O)c(O)c(O)c1` [compound 264, N,N′-(((2R,3R,4S)-3,4-dihydroxytetrahydrofuran-2,4-diyl)bis(methylene))bis(3,4,5-trihydroxybenzamide)], for which, in assay [1], the “Combin. (100 μM): percentage Colony Forming Units (CFU's) per biofilm” value stood at 57.74 percentage and the EC50 came to 191 µM. Moreover, in assay [2], the “Pretreat (100 μM): percentage Colony Forming Units (CFU's) per biofilm” value amounted to 22.35 percentage and the EC50 came to 63.8 µM.
As for `O=C(NC[C@]1(O)CO[C@H](CNC(=O)C2CCCCC2)[C@H]1O)c1ccccc1` [compound 191, N-(((3S,4R,5R)-5-(cyclohexanecarboxamidomethyl)-3,4-dihydroxytetrahydrofuran-3-yl)methyl)benzamide], in assay [1], the “Combin. (100 μM): percentage Colony Forming Units (CFU's) per biofilm” value worked out at 19.28 percentage. In addition, the “Pretreat (100 μM): percentage Colony Forming Units (CFU's) per biofilm” value in assay [2] worked out at 32.28 percentage.
For `CN(C)c1ccc(C(=O)NC[C@]2(O)CO[C@H](CNC(=O)c3ccccc3Cl)[C@H]2O)cc1` [compound 237, 2-chloro-N-(((2R,3R,4S)-4-((4-(dimethylamino)benzamido)methyl)-3,4-dihydroxytetrahydrofuran-2-yl)methyl)benzamide], in assay [1], the “Combin. (25 μM): percentage Colony Forming Units (CFU's) per biofilm” value was 47.56 percentage and the half-maximal effective concentration (EC50) was determined as 69.7 µM. In addition, in assay [2], the “Pretreat. (25 μM): percentage Colony Forming Units (CFU's) per biofilm” value came to 58.79 percentage and the EC50 stood at 47.6 µM.
Turning to `Cc1ccccc1C(=O)NC[C@]1(O)CO[C@H](CNC(=O)c2ccccc2Cl)[C@H]1O` [compound 244, 2-chloro-N-(((2R,3R,4S)-3,4-dihydroxy-4-((2-methylbenzamido)methyl)tetrahydrofuran-2-yl)methyl)benzamide], in assay [1], the “Combin. (25 μM): percentage Colony Forming Units (CFU's) per biofilm” value came out at 54.77 percentage and the EC50 turned out to be 124 µM. Also, in assay [2], the “Pretreat. (25 μM): percentage Colony Forming Units (CFU's) per biofilm” value was determined as 41.07 percentage and the EC50 was 56.4 µM.
Consider `O=C(NC[C@]1(O)CO[C@H](CNC(=O)c2ccncc2Cl)[C@H]1O)c1ccccc1` [compound 200, N-(((2R,3R,4S)-4-(benzamidomethyl)-3,4-dihydroxytetrahydrofuran-2-yl)methyl)-3-chloroisonicotinamide], for which, in assay [1], the “Combin. (100 μM): percentage Colony Forming Units (CFU's) per biofilm” value worked out at 48.93 percentage and the EC50 is 232 µM. In addition, in assay [2], the “Pretreat (100 μM): percentage Colony Forming Units (CFU's) per biofilm” value amounted to 58.59 percentage and the EC50 was above 250 µM.
On to `O=C(NC[C@]1(O)CO[C@H](CNCc2ccccc2)[C@H]1O)c1ccccc1` [compound 228, N-(((3S,4R,5R)-5-((benzylamino)methyl)-3,4-dihydroxytetrahydrofuran-3-yl)methyl)benzamide], for which, in assay [1], the “Combin. (100 μM): percentage Colony Forming Units (CFU's) per biofilm” value is recorded as 22.13 percentage and the half-maximal effective concentration (EC50) worked out at 45.2 µM. In assay [2], the “Pretreat (100 μM): percentage Colony Forming Units (CFU's) per biofilm” value worked out at 18.68 percentage and the EC50 was 41.2 µM.
Turning to `O=C(NC[C@]1(O)CO[C@H](CNC(=O)c2ccccc2Cl)[C@H]1O)c1ccoc1` [compound 247, N-(((3S,4R,5R)-5-((2-chlorobenzamido)methyl)-3,4-dihydroxytetrahydrofuran-3-yl)methyl)furan-3-carboxamide], in assay [1], the “Combin. (25 μM): percentage Colony Forming Units (CFU's) per biofilm” value was 49.94 percentage and the EC50 was 76.7 µM. In assay [2], the “Pretreat. (25 μM): percentage Colony Forming Units (CFU's) per biofilm” value is 42.14 percentage and the EC50 is 68.5 µM.
In the case of `O=C(NC[C@]1(O)CO[C@H](CNC(=O)c2ccccc2Cl)[C@H]1O)c1cccnc1` [compound 243, N-(((3S,4R,5R)-5-((2-chlorobenzamido)methyl)-3,4-dihydroxytetrahydrofuran-3-yl)methyl)nicotinamide], the “Combin. (25 μM): percentage Colony Forming Units (CFU's) per biofilm” value in assay [1] is 51.83 percentage. Also, the “Pretreat. (25 μM): percentage Colony Forming Units (CFU's) per biofilm” value in assay [2] worked out at 85.00 percentage.
On to `N#Cc1cccc(C(=O)NC[C@H]2OC[C@@](O)(CNC(=O)c3ccccc3)[C@@H]2O)c1` [compound 164, N-(((2R,3R,4S)-4-(benzamidomethyl)-3,4-dihydroxytetrahydrofuran-2-yl)methyl)-3-cyanobenzamide], for which the “Combin. (100 μM): percentage Colony Forming Units (CFU's) per biofilm” value in assay [1] turned out to be 14.49 percentage. The “Pretreat (100 μM): percentage Colony Forming Units (CFU's) per biofilm” value in assay [2] amounted to 22.11 percentage.
Consider `O=C(NC[C@]1(O)CO[C@H](CNS(=O)(=O)c2ccccc2)[C@H]1O)c1ccccc1` [compound 215, N-(((3S,4R,5R)-3,4-dihydroxy-5-(phenylsulfonamidomethyl)tetrahydrofuran-3-yl)methyl)benzamide], for which the “Combin. (100 μM): percentage Colony Forming Units (CFU's) per biofilm” value in assay [1] came to 31.29 percentage. Also, in assay [2], the “Pretreat (100 μM): percentage Colony Forming Units (CFU's) per biofilm” value amounted to 22.23 percentage.
As for `O=C(NC[C@]1(O)CO[C@H](CNC(=O)c2ccccc2Cl)[C@H]1O)c1ccc(C(F)(F)F)cc1` [compound 238, 2-chloro-N-(((2R,3R,4S)-3,4-dihydroxy-4-((4-(trifluoromethyl)benzamido)methyl)tetrahydrofuran-2-yl)methyl)benzamide], in assay [1], the “Combin. (25 μM): percentage Colony Forming Units (CFU's) per biofilm” value is reported as 68.51 percentage and the EC50 stood at 75.2 µM. For the same compound, in assay [2], the “Pretreat. (25 μM): percentage Colony Forming Units (CFU's) per biofilm” value turned out to be 45.03 percentage and the EC50 was determined as 84.6 µM.
